Experimental data published in ChEMBL document CHEMBL1201862, “PubChem BioAssay data set” (2004).
Blank lines part the entries; values can stand above or below the compound they belong to. Active and inactive are the calls of the source.

Assays:
[1] = biological target: T1, Low molecular weight phosphotyrosine protein phosphatase (Homo sapiens, UniProt P24666); experiment: LMPTP phosphatase inhibitors, dose response, biochemical, OMFP substrate, fluorescence intensity, set 2 (AID 743307); type: functional
T1 sequence (P24666 whole entry): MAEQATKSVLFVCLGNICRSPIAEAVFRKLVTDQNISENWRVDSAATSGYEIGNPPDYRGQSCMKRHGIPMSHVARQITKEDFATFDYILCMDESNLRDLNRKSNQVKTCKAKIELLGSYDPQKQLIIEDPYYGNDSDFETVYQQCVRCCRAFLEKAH

[2] = biological target: T1, Low molecular weight phosphotyrosine protein phosphatase; experiment: LMPTP phosphatase inhibitors, colorimetric pNPP readout, dose response, orthogonal assay, biochemical, absorbance, pNPP substrate, LMPTP-A isoform, set 2 (AID 743308); type: functional
[3] = inhibitors of Vif binding to APOBEC3G peptide, primary screen, biochemical, TR-FRET, GST-Vif 1-94, biotin-A3G peptide, dose response retest (AID 1117319); type: functional;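 also: TR-FRET signal of purified GST-Vif binding a biotinylated A3G peptide; inhibitors lower the FRET signal by blocking Vif and A3G binding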
[4] = Vero cell cytotoxicity, dose response, cytotoxicity control for Vif-APOBEC3G degradation inhibitor project, Vero cells (AID 1117358); type: functional; conditions: Human immunodeficiency virus 1, Vero
[5] = biological target: Mitogen-activated protein kinase 10 (Homo sapiens, UniProt P53779); experiment: Dose response biochemical screening assay for inhibitors of c-Jun N-Terminal Kinase 3 (JNK3). [Related pubchem assays: 746 ]
Chain of Mitogen-activated protein kinase 10 (P53779 whole entry): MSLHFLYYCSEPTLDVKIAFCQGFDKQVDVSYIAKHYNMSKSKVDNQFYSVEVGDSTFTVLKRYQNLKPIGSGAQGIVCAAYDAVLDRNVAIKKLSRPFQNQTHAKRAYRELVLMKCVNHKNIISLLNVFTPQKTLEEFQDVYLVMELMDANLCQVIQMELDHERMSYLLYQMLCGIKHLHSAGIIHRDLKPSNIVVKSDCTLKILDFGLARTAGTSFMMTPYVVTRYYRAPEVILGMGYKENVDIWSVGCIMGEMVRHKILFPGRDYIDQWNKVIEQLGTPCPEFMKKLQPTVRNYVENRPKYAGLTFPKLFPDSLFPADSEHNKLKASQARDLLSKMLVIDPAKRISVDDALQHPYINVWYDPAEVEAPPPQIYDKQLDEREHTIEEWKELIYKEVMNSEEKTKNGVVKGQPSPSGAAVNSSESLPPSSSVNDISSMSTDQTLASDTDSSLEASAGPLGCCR

IC50 [1]: > 80 µM (inactive)
IC50 [2]: > 80 µM (inactive)
SMILES: Cc1ccc2nc(-c3ccccc3)cc(NCCCN3CCCCC3)c2c1

IC50 [3]: > 100 µM (active)
SMILES: CCCNC(=O)c1ccc2c(c1)C1C3CCC(C3)C1C(c1ccccc1)N2 (stereo not given)
CC50 [4]: > 40 µM (active)

IC50 [5]: 27.9 µM (not active)
SMILES: COc1ccc(CC(=O)Nc2nc(C)cs2)cc1OC
